Measurements published in patent US20240425479A1, “HALO-SUBSTITUTED AMINO AZA-HETEROARYL COMPOUNDS AS INHIBITORS OF THE HAEMATOPOIETIC PROGENITOR KINASE 1 (HPK1)” (priority 2021, published 2024).

Target: T1, Recombinant (1-346) HPK1 (h) (Homo sapiens, UniProt Q92918)
T1 construct: Recombinant (1-346) HPK1 (h) is incubated with 8 mM MOPS pH 7.0
T1 sequence (Q92918 1-346): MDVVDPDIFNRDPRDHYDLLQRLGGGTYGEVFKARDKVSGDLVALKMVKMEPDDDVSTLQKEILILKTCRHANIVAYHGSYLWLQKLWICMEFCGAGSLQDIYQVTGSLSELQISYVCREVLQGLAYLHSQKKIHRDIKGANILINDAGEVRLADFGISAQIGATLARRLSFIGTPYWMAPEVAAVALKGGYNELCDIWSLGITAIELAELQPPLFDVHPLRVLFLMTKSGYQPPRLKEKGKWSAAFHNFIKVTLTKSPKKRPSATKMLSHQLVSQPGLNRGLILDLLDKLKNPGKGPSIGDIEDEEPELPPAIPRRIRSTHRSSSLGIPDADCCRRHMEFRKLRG
Assay: HPK1 human STE kinase enzymatic radiometric assay
Format: biochemical
Conditions: read-out: HPK1 IC50 nM Range
Method in brief: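 Compounds in 3-fold, 9-point serial dilution; kinase (residues 1-346) phosphorylates myelin basic protein (0.33 mg/mL) using [gamma-33P]-ATP at pH 7.0 (MOPS, EDTA, Mg acetate) for 40 min, room temperature. Acid-quenched mixture filtered onto P30 mats; incorporated radioactivity read by scintillation counting.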

| Compound | IC50 [nM] |
| --- | --- |
| Nc1nc(F)c(-c2ccc(C3CCOCC3)c(CN3CCCC3)c2)nc1-c1ccc2c(=O)[nH]cc(F)c2c1 [Example I-207, 6-(3-amino-5-fluoro-6-(3-(pyrrolidin-1-ylmethyl)-4-(tetrahydro-2H-pyran-4-yl)phenyl)pyrazin-2-yl)-4-fluoroisoquinolin-1(2H)-one] | 0.1 to 10 |
| Nc1nc(F)c(-c2ccc(OC3CCOCC3)c(CN3CCC3)c2)nc1-c1ccc2c(c1)CCNC2=O [Example I-208, 6-(3-amino-6-(3-(azetidin-1-ylmethyl)-4-((tetrahydro-2H-pyran-4-yl)oxy)phenyl)-5-fluoropyrazin-2-yl)-3,4-dihydroisoquinolin-1(2H)-one] | 11 to 100 |
| Nc1nc(F)c(-c2ccc(OC3CCOCC3)c(CN3CCC3)c2)nc1-c1cc2c(cc1F)C(=O)NCC2 [Example I-209, 6-(3-amino-6-(3-(azetidin-1-ylmethyl)-4-((tetrahydro-2H-pyran-4-yl)oxy)phenyl)-5-fluoropyrazin-2-yl)-7-fluoro-3,4-dihydroisoquinolin-1(2H)-one] | 11 to 100 |
| Nc1nc(F)c(-c2ccc(OC3CCOCC3)c(CN3CCC3)c2)nc1-c1cc(F)c2c(c1)CCNC2=O [Example I-210, 6-(3-amino-6-(3-(azetidin-1-ylmethyl)-4-((tetrahydro-2H-pyran-4-yl)oxy)phenyl)-5-fluoropyrazin-2-yl)-8-fluoro-3,4-dihydroisoquinolin-1(2H)-one] | 11 to 100 |
| C[C@H]1CN(c2ccc(-c3nc(-c4ccc5c(c4)CCNC5=O)c(N)nc3F)cc2CN(C)C)CCO1 [Example I-211, (S)-6-(3-amino-6-(3-((dimethylamino)methyl)-4-(2-methylmorpholino)phenyl)-5-fluoropyrazin-2-yl)-3,4-dihydroisoquinolin-1(2H)-one] | 0.1 to 10 |
| C[C@H]1CN(c2ccc(-c3nc(-c4cc5c(cc4F)C(=O)NCC5)c(N)nc3F)cc2CN(C)C)CCO1 [Example I-212, (S)-6-(3-amino-6-(3-((dimethylamino)methyl)-4-(2-methylmorpholino)phenyl)-5-fluoropyrazin-2-yl)-7-fluoro-3,4-dihydroisoquinolin-1(2H)-one] | 0.1 to 10 |
| C[C@H]1CN(c2ccc(-c3nc(-c4cc(F)c5c(c4)CCNC5=O)c(N)nc3F)cc2CN(C)C)CCO1 [Example I-213, (S)-6-(3-amino-6-(3-((dimethylamino)methyl)-4-(2-methylmorpholino)phenyl)-5-fluoropyrazin-2-yl)-8-fluoro-3,4-dihydroisoquinolin-1(2H)-one] | 0.1 to 10 |
| C[C@H]1CN(c2ccc(-c3nc(-c4ccc5c(c4)CCNC5=O)c(N)nc3F)cc2CN2CCC2)CCO1 [Example I-214, (S)-6-(3-amino-6-(3-(azetidin-1-ylmethyl)-4-(2-methylmorpholino)phenyl)-5-fluoropyrazin-2-yl)-3,4-dihydroisoquinolin-1(2H)-one] | 0.1 to 10 |
| C[C@H]1CN(c2ccc(-c3nc(-c4cc5c(cc4F)C(=O)NCC5)c(N)nc3F)cc2CN2CCC2)CCO1 [Example I-215, (S)-6-(3-amino-6-(3-(azetidin-1-ylmethyl)-4-(2-methylmorpholino)phenyl)-5-fluoropyrazin-2-yl)-7-fluoro-3,4-dihydroisoquinolin-1(2H)-one] | 0.1 to 10 |
| C[C@H]1CN(c2ccc(-c3nc(-c4cc(F)c5c(c4)CCNC5=O)c(N)nc3F)cc2CN2CCC2)CCO1 [Example I-216, (S)-6-(3-amino-6-(3-(azetidin-1-ylmethyl)-4-(2-methylmorpholino)phenyl)-5-fluoropyrazin-2-yl)-8-fluoro-3,4-dihydroisoquinolin-1(2H)-one] | 11 to 100 |

Continued, values first:

| IC50 [nM] | Compound |
| --- | --- |
| 11 to 100 | Cc1nc2cc(-c3nc(-c4ccc(C5CCOCC5)c(CN5CCC[C@H]5C)c4)c(F)nc3N)cc(F)c2c(=O)[nH]1 [Example I-217, (R)-7-(3-amino-5-fluoro-6-(3-((2-methylpyrrolidin-1-yl)methyl)-4-(tetrahydro-2H-pyran-4-yl)phenyl)pyrazin-2-yl)-5-fluoro-2-methylquinazolin-4(3H)-one] |
| 11 to 100 | C[C@@H]1CCCN1Cc1cc(-c2nc(-c3cc(F)c4c(c3)CCNC4=O)c(N)nc2F)ccc1C1CCOCC1 [Example I-218, (R)-6-(3-amino-5-fluoro-6-(3-((2-methylpyrrolidin-1-yl)methyl)-4-(tetrahydro-2H-pyran-4-yl)phenyl)pyrazin-2-yl)-8-fluoro-3,4-dihydroisoquinolin-1(2H)-one] |
| 101 to 1000 | Cc1nc2cc(-c3nc(-c4ccc(C5CCOCC5)c(CN5CCC[C@@H]5C)c4)c(F)nc3N)cc(F)c2c(=O)[nH]1 [Example I-219, (S)-7-(3-amino-5-fluoro-6-(3-((2-methylpyrrolidin-1-yl)methyl)-4-(tetrahydro-2H-pyran-4-yl)phenyl)pyrazin-2-yl)-5-fluoro-2-methylquinazolin-4(3H)-one] |
| 11 to 100 | C[C@H]1CCCN1Cc1cc(-c2nc(-c3cc(F)c4c(c3)CCNC4=O)c(N)nc2F)ccc1C1CCOCC1 [Example I-220, (S)-6-(3-amino-5-fluoro-6-(3-((2-methylpyrrolidin-1-yl)methyl)-4-(tetrahydro-2H-pyran-4-yl)phenyl)pyrazin-2-yl)-8-fluoro-3,4-dihydroisoquinolin-1(2H)-one] |
| 0.1 to 10 | Cc1cc(-c2nc(-c3cc(F)c4c(c3)CCNC4=O)c(N)nc2F)ccc1C1CCOCC1 [Example I-221, 6-(3-amino-5-fluoro-6-(3-methyl-4-(tetrahydro-2H-pyran-4-yl)phenyl)pyrazin-2-yl)-8-fluoro-3,4-dihydroisoquinolin-1(2H)-one] |
| 0.1 to 10 | Cc1cc(-c2nc(-c3cc4c(cc3F)C(=O)NCC4)c(N)nc2F)ccc1C1CCOCC1 [Example I-222, 6-(3-amino-5-fluoro-6-(3-methyl-4-(tetrahydro-2H-pyran-4-yl)phenyl)pyrazin-2-yl)-7-fluoro-3,4-dihydroisoquinolin-1(2H)-one] |
| 0.1 to 10 | CCN(C)Cc1cc(-c2nc(-c3ccc4c(c3)C(F)(F)CNC4=O)c(N)nc2F)ccc1C1CCOCC1 [Example I-224, 6-(3-amino-6-(3-((ethyl(methyl)amino)methyl)-4-(tetrahydro-2H-pyran-4-yl)phenyl)-5-fluoropyrazin-2-yl)-4,4-difluoro-3,4-dihydroisoquinolin-1(2H)-one] |
| 11 to 100 | CCN(C)Cc1cc(-c2nc(-c3ccc4c(c3)C(F)(F)CNC4=O)c(N)nc2F)ccc1C1=CCOCC1 [Example I-225, 6-(3-amino-6-(4-(3,6-dihydro-2H-pyran-4-yl)-3-((ethyl(methyl)amino)methyl)phenyl)-5-fluoropyrazin-2-yl)-4,4-difluoro-3,4-dihydroisoquinolin-1(2H)-one] |
| 0.1 to 10 | C[C@@H]1CCCN1Cc1cc(-c2nc(-c3ccc4c(=O)[nH]cc(F)c4c3)c(N)nc2F)ccc1C1CCOCC1 [Example I-226, (R)-6-(3-amino-5-fluoro-6-(3-((2-tmethylpyrrolidin-1-yl)methyl)-4-(tetrahydro-2H-pyran-4-yl)phenyl)pyrazin-2-yl)-4-fluoroisoquinolin-1(2H)-one] |
| 11 to 100 | C[C@@H]1CCCN1Cc1cc(-c2nc(-c3ccc4c(=O)[nH]cc(Cl)c4c3)c(N)nc2F)ccc1C1CCOCC1 [Example I-227, (R)-6-(3-amino-5-fluoro-6-(3-((2-methylpyrrolidin-1-yl)methyl)-4-(tetrahydro-2H-pyran-4-yl)phenyl)pyrazin-2-yl)-4-chloroisoquinolin-1(2H)-one] |
| 0.1 to 10 | C[C@H]1CCCN1Cc1cc(-c2nc(-c3ccc4c(=O)[nH]cc(F)c4c3)c(N)nc2F)ccc1C1CCOCC1 [Example I-228, (S)-6-(3-amino-5-fluoro-6-(3-((2-methylpyrrolidin-1-yl)methyl)-4-(tetrahydro-2H-pyran-4-yl)phenyl)pyrazin-2-yl)-4-fluoroisoquinolin-1(2H)-one] |
| 11 to 100 | C[C@H]1CCCN1Cc1cc(-c2nc(-c3ccc4c(=O)[nH]cc(Cl)c4c3)c(N)nc2F)ccc1C1CCOCC1 [Example I-229, (S)-6-(3-amino-5-fluoro-6-(3-((2-methylpyrrolidin-1-yl)methyl)-4-(tetrahydro-2H-pyran-4-yl)phenyl)pyrazin-2-yl)-4-chloroisoquinolin-1(2H)-one] |
| 0.1 to 10 | C[C@@H]1CN(c2ccc(-c3nc(-c4ccc5c(=O)[nH]cc(F)c5c4)c(N)nc3F)cc2CN(C)C)C[C@H](C)O1 [Example I-230, 6-(3-amino-6-(3-((dimethylamino)methyl)-4-((2R,6S)-2,6-dimethylmorpholino)phenyl)-5-fluoropyrazin-2-yl)-4-fluoroisoquinolin-1(2H)-one] |
| 0.1 to 10 | C[C@@H]1CN(c2ccc(-c3nc(-c4ccc5c(=O)[nH]cc(Cl)c5c4)c(N)nc3F)cc2CN(C)C)C[C@H](C)O1 [Example I-231, 6-(3-amino-6-(3-((dimethylamino)methyl)-4-((2R,6S)-2,6-dimethylmorpholino)phenyl)-5-fluoropyrazin-2-yl)-4-chloroisoquinolin-1(2H)-one] |
| 0.1 to 10 | C[C@@H]1CCCN1Cc1cc(-c2nc(-c3ccc4c(c3)C(F)(F)CNC4=O)c(N)nc2F)ccc1C1CCOCC1 [Example I-232, (R)-6-(3-amino-5-fluoro-6-(3-((2-methylpyrrolidin-1-yl)methyl)-4-(tetrahydro-2H-pyran-4-yl)phenyl)pyrazin-2-yl)-4,4-difluoro-3,4-dihydroisoquinolin-1(2H)-one] |
